In general, pKa refers to the negative logarithm of the acid dissociation constant. Low values mean a group that gives up its proton readily, high ones a group that holds its proton tightly.

The conditions of one series: acidic group.
Regarding `O=C(O)C12CC3CC(CC(F)(C3)C1)C2`, the pKa came out at 4.22.

Turning to `CC(=O)c1cccc(NC(N)=S)c1`, the pKa came to 12.1.

In turn, `Oc1oc(-c2ccccc2)nc1Cc1ccccc1` showed a pKa of 8.72.

The molecule `Cc1cc(O)cc(C)[o+]1` returned a pKa of 0.38.

The molecule `C=C=CC(=O)O` displayed a pKa of 3.96.

As to `Oc1ccc2[nH]cnc2c1`, the pKa was 10.

The molecule `O=C(O)c1ccc(I)o1` showed a pKa of 2.94.

With `O=C(O)c1ccc([N+](=O)[O-])c2cccnc12`, the pKa was 1.41.

Turning to `CC1=C(O)C(O)=CC1`, the pKa came out at 9.11.

In turn, `Cc1ccc(O)cc1Cc1cc([N+](=O)[O-])ccc1[O-]` displayed a pKa of 10.3.

For `O=C(O)/C=C/c1ccc(O)cc1`, the pKa turned out to be 4.64.

Consider `S=CNc1cccc(Cl)c1`, for which the pKa was 10.8.

Consider `Cn1cccc1C(=O)O`, for which the pKa came out at 4.51.

Molecule `O=C(c1ccccc1)c1ccc(O)cc1` displayed a pKa of 8.01.

Take `CCC(=O)NO`: the pKa was found to be 9.46.

`CN(C)c1cc[nH+]c2c(O)cccc12` displayed a pKa of 7.05.

On to `FC(F)(F)c1nc2ncncc2[nH]1`, for which the pKa stood at 5.12.

In turn, `O=C([O-])CN(CC(=O)O)Cc1cc(Cl)cc(C[NH+](CC(=O)[O-])CC(=O)O)c1O` displayed a pKa of 2.2.

As to `O=[N+]([O-])c1cccc(NS(=O)(=O)c2ccccc2)c1`, the pKa was 6.91.

With `Cc1ccc2ccccc2c1C(=O)O`, the pKa was determined as 3.11.

The same series, now with this note: basic group.
Consider `C(=C\CN1CCCCC1)/CN1CCCCC1`, for which the pKa was found to be 9.7.

Consider `CNc1ncccn1`, for which the pKa was 3.82.

`Nc1nc(N)nc(N(CCO)CCO)n1` registered a pKa of 5.1.

For the molecule `NCCCCC#CC#CCCC(=O)[O-]`, the pKa is 10.5.

`Oc1ccc2[nH]cnc2c1` returned a pKa of 5.69.

On to `[NH3+]CCCc1ccccn1`, for which the pKa amounted to 4.98.

For the molecule `CC1(C)CC(=O)C=C(N2CCCC2)C1`, the pKa worked out at 3.15.

As for `O=C(N/[NH+]=C/c1ccccc1)c1ccncc1`, the pKa was determined as 1.82.

Take `COc1ccc2c3c1O[C@H]1CCC[C@H]4[C@H](NCC[C@]314)[C@@H]2O`: the pKa stood at 9.17.

`CC(C)NCCC#N` returned a pKa of 8.

In turn, `CCNC(=O)c1ccccn1` returned a pKa of 2.4.

Regarding `Nc1ccc2nnc3ccccc3c2c1`, the pKa is 6.68.

Take `c1cc(-c2ccoc2)ccn1`: the pKa worked out at 5.72.

Turning to `Cc1ccc2c(c1)N1CCN2CC1`, the pKa was 5.83.

Molecule `[NH3+]CCc1cnc[nH]1` came in with a pKa of 6.28.

For `CC(C)(C)CN`, the pKa was determined as 10.2.

Molecule `Cc1ccc2ccc3cccnc3c2n1` gave a pKa of 5.36.

Regarding `c1ccc2c(c1)CNCCCNCc1ccccc1OCCO2`, the pKa amounted to 9.82.

As to `CCN1CCC[C@@H]1CNC(=O)c1c(OC)ccc(Cl)c1[O-]`, the pKa was determined as 9.54.

Take `CC(=O)c1ccncc1`: the pKa turned out to be 3.6.

On to `Cc1cc(-c2ccccc2)nn(CCN2CCOCC2)c1=N`, for which the pKa came out at 9.7.

In the case of `CN1CCCC1c1cccnc1` (stereo not given), the pKa is 8.06.

Consider `CCCN(CCC)CC(=O)NC1c2ccccc2-c2ccccc21`, for which the pKa was found to be 7.28.

For the molecule `Cc1ccc(/N=N/c2ccc(N)cc2)cc1`, the pKa came out at 3.04.

The molecule `Clc1cnc2c(ccc3cccnc32)c1` showed a pKa of 3.99.

Molecule `FC(F)(F)c1nc2ncncc2[nH]1` gave a pKa of 1.

With `CC[NH2+]/C(=C/C(=O)c1cccc(S(=O)(=O)[O-])c1)n1ccnc1`, the pKa was determined as 4.5.

As for `O=[N+]([O-])c1ccc(O)c2ncccc12`, the pKa stood at 2.88.

For `O=C([O-])Cc1nc2ccccc2[nH]1`, the pKa came to 4.1.

In turn, `OC[C@@H]1O[C@H](n2cnc3c([S-])ncnc32)[C@@H](O)[C@H]1O` gave a pKa of 7.63.

Consider `O=[N+]([O-])c1ccc([O-])c(CN2CCCCC2)c1`, for which the pKa was 10.5.

Molecule `c1ccc2cc(NCC[NH2+]c3ccc4ccccc4c3)ccc2c1` gave a pKa of 1.8.

As for `c1ccc2[nH+]c(-c3ccncc3)[nH]c2c1`, the pKa came to 4.47.

In turn, `COc1cc(C)nc(NN)n1` showed a pKa of 6.2.

On to `O=C([O-])c1ccc2sc(Cn3ccnc3)cc2c1`, for which the pKa is 6.34.

Source of the values: the pKa sets of Baltruschat and Czodrowski (2020).
